Assay results from US10143748B2, “B-cell reduction using CD37-specific and CD20-specific binding molecules” (Emergent Product Development Seattle, LLC, priority 2005, dated 2018).
“Also recorded” adds a separate entry of the source.

Key:
Daudi tumors = assay: Daudi tumor xenograft in nude mice; format: in vivo, mouse
Procedure: Ramos and Daudi tumor cells were separately grown and (5×10^6) cells were injected subcutaneously in the right flank of mice to initiate the formation of mouse tumor xenografts. After tumor development, mice were sorted into groups based on tumor size/volume (day 0). […] Tumor volume was blindly measured three times weekly with calipers until completion of the experiment (sacrifice or regression).

[1] = molecular target: T1, CD37 cell surface receptor (Homo sapiens, UniProt P11049); assay: TRU-016 binding to human PBMC, two-color flow cytometry
T1 construct: Human PBMCs were isolated over LSM density gradients and incubated with unconjugated TRU-016; endogenous in cells; host or cells: human PBMC (CD19-positive B lymphocyte gate)
T1 sequence (P11049 1-281): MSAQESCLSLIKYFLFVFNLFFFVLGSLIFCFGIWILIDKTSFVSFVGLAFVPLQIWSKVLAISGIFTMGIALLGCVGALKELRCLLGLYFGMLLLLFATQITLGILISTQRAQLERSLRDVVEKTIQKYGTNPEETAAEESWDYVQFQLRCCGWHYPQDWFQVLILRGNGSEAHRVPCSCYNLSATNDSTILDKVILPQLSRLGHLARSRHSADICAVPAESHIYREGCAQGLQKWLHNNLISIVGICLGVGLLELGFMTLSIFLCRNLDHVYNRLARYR
Procedure: Experiments were also performed to determine that the binding specificity of the parent antibody to the CD37 cell surface receptor is preserved in TRU-016. Human PBMCs were isolated over LSM density gradients and incubated with unconjugated TRU-016 and PE-conjugated anti-human CD19. Cells were washed and incubated with 1:100 FITC GAH IgG (Fc specific) for 45 minutes on ice. Cells were washed and analyzed by two-color flow cytometry on a FACsCalibur instrument using Cell Quest software. Cells were gated for B lymphocytes or non-B lymphocytes by CD19 staining.
With increasing concentrations of TRU-016, the FITC signal on the B lymphocyte (CD19 positive gate) increased rapidly from 0.01-1.0 μg/ml, until it reached saturation at approximately 1 μg/mL or a mean fluorescence intensity (MFI) of 1000. […] Thus, the staining pattern of the G28-1 murine monoclonal antibody is preserved with TRU-016 (FIG. 1C).

CD37 = molecular target: T2, CD37 (Homo sapiens, UniProt P11049); assay: competitive binding / FACs cross blocking of FITC anti-CD37 reagents on BJAB cells; set-up: BJAB-cells, a B lymphoblastoid B-cell line, (courtesy of Ed Clark, University of Washington); endogenous in cells; host or cells: BJAB B lymphoblastoid cell line; conditions: unlabeled blocking reagent, FIG. 2
T2 sequence (P11049 1-281): T1 sequence (P11049 1-281)
Procedure: FITC labeled antibody conjugates were titrated from 10 μg/mL to 10 pg/mL in an initial binding study to determine the optimal amounts to use in the blocking studies. The level chosen was just below saturating amounts, and was kept constant in the subsequent assays, while levels of blocking antibody were increased over a 10-fold range. Data were plotted as percent of maximal binding versus concentration of blocking antibody, so that higher levels indicate less efficient blocking, while lower levels indicate more efficient blocking activity.
BJAB-cells, a B lymphoblastoid B-cell line, (courtesy of Ed Clark, University of Washington) were then stained with a panel of various clones of anti-CD37 MAbs, including MB371, BL14, NMN46, IPO24, HH1, WR17, and the TRU-016 SMIP.
For competitive binding assays, 2.5×10^5 BJAB cells were incubated in 96-well V-bottom plates in staining media (PBS with 2% mouse sera) with the FITC-conjugated anti-CD37 MAbs at 1.25 μg/mL in the presence of unconjugated anti-CD37 MAb at the indicated concentrations (2.5, 1.25, 0.6, or 0.3 μg/ml) or staining media for 45 minutes on ice in the dark. Blocking antibodies and FITC labeled antibody conjugates were added to reactions prior to addition of cells. […] The cells were analyzed by flow cytometry using a FACsCalibur instrument and CellQuest software (BD Biosciences, San Jose, Calif.). […]

DHL-4 B cells = assay: CDC assay on DHL-4 B cells; format: cell-based; conditions: FIG. 7
Procedure: Cells were suspended in Iscoves (#12440-053, Gibco/Invitrogen, Granland, N.Y.) at 5×10E^5 cells/well in 75 μl. […] Binding reactions were allowed to proceed for 45 minutes prior to centrifugation and washing in serum free Iscoves. Cells were resuspended in Iscoves with human serum (#A113, Quidel, San Diego, Calif.) at the indicated concentrations. The cells were incubated 60 minutes at 37° C. Cells were washed by centrifugation and resuspended in 125 μl PBS with 2% FBS (#16140-071, Gibco, Invitrogen, Grand Island, N.Y.), staining media. The cells were transferred to FACS cluster tubes (#4410, CoStar, Corning, N.Y.) and 125 μl staining media with 5 μl propidium iodide (PI, #P-16063, Molecular Probes, Eugene Oreg.) was added. Samples were incubated 15 minutes at room temperature in the dark prior to analysis by flow cytometry using a FACsCalibur and CellQuest software (Becton Dickinson).

C1q = molecular target: T3, C1q (Homo sapiens, UniProt P02745+P02746+P02747); assay: FITC C1q binding to reagent-coated Ramos B cells in normal human serum; conditions: normal human serum 1.25-10%, FIG. 3A
T3 construct: normal human serum (NHS, #A113, Quidel Corp., San Diego, Calif.); tissue Quidel Corp. A113; host or cells: normal human serum (purchased), added to reagent-coated Ramos B cells
T3 sequence (P02745 23-245): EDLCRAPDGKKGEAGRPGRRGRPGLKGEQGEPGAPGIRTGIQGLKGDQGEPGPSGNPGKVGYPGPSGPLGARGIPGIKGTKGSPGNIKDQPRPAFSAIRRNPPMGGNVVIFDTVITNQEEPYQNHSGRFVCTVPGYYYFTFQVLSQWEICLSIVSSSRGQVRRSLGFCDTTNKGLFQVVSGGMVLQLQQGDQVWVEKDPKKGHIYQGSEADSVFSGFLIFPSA
T3 sequence (P02746 28-253): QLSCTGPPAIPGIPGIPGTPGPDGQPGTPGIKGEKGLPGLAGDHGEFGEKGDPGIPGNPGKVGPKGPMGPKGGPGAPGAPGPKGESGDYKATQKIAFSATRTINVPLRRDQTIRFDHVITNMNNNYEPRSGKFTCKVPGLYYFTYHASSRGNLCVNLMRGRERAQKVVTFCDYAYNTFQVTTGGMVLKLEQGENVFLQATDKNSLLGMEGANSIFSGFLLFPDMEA
T3 sequence (P02747 29-245): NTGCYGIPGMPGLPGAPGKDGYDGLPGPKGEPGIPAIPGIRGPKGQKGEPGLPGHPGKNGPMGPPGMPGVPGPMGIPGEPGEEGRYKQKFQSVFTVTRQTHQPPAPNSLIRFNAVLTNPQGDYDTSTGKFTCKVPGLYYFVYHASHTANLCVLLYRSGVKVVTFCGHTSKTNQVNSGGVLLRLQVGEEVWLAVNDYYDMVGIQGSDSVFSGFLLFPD
Procedure: C1q binding studies were performed as previously described (Cragg et al., Blood 2004, 103:2738-2743). Briefly, Ramos B-cells in Iscoves media (#12440-053, Gibco/Invitrogen, Grand island, NY) with no serum were plated in 96-well V bottom plates at 5×10^5/well in 100 μl. Cells were incubated with reagents for 15 minutes at 37° C., and normal human serum (NHS, #A113, Quidel Corp., San Diego, Calif.) diluted in Iscoves was then added at a volume of 50 μl to each well for a final concentration of 10, 5, 2.5, or 1.25% human serum. Fifty μl of media was added to the control well. For cobra venom factor (CVF) experiments, CVF was added to human serum complement samples at 20 Units CVF/mL of serum for 90 minutes at 37° C. prior to addition of serum to complement assays, and the dilution of serum by CVF accounted for when making sample dilutions.
The cells plus complement source were incubated for an additional 5 minutes at 37° C., and washed 2 times with cold PBS (#14040-133, Gibco/Invitrogen, Grand Island, N.Y.) via centrifugation and resuspended in 100 μl of PBS. Fifty μl from each well was transferred to a second plate for second step control staining. […] Samples were washed, resuspended in cold PBS, and read immediately on a FACsCalibur flow cytometer and analyzed with Cell Quest software (Becton Dickinson, San Jose, Calif.).

[2] = tested on: Rituximab-resistant cells (Raji 4RH and RL 4RH); assay: direct cytotoxicity in rituximab-resistant cells, annexin/PI; format: cell-based; conditions: TRU-016 5 μg/mL, rituximab 10 μg/mL, five-fold excess goat anti-human IgG, 24 hours
Procedure: Direct cytoxicity was measured by annexin/PI staining and cell viability (percent) was calculated relative to control cells (cells treated with herceptin).

BJAB cells = assay: Annexin V/PI apoptosis analysis, BJAB; format: cell-based
Procedure: Experiments examining the effect of B cell targeted SMIPS on B cell line apoptosis were performed. Each SMIP was tested individually and then in combination. Samples were analyzed at both 24 and 48 hours after initiation of incubation reactions. […] In addition, 20 μg/mL goat anti-human IgG was added to reactions in order to cross link reagents on the cell surface. Cells were then stained with Annexin V-FITC and propidium iodide using the BD Pharmigen Apoptosis Detection Kit I (#556547), and processed according to kit instructions. Briefly, cells were washed twice with cold PBS and resuspended in “binding buffer” at 1×10^6 cells/mL. One hundred microliters of the cells in binding buffer were then stained with 5 μl of Annexin V-FITC and 5 μl of propidium iodide. The cells were gently vortexed and incubated in the dark at room temperature for 15 minutes. Four hundred microliters of binding buffer was then added to each sample. They were then read and analyzed on a FACsCalibur (Becton Dickinson) instrument using Cell Quest software (Becton Dickinson).

[3] = established Daudi tumors, 100 μg

G28-1 scFv VH11S(SSC—P)H WCH2 WCH3 [TRU-016]
survival time (Daudi tumors; Daudi tumor xenograft, FIGS. 25 and 26): more effective than rituximab in maintaining survival; also recorded: significantly enhanced survival time compared to the control group; also recorded: statistically significant increase in median survival time | Median Survival Time (Daudi tumors; [3]): 24 days | Percentage of Tumor Free Mice at Day 90 (Daudi tumors; [3]): 25% | mean fluorescence intensity (MFI) at saturation ([1]; B lymphocyte (CD19 positive gate)): 1000 | staining of / binding to the non-B lymphocyte population ([1]; CD19 negative gate): much lower level of binding; also recorded: detectable, but very low | binding to human peripheral blood B lymphocytes ([1]; flow cytometry, FIG. 1C): high level, specific binding | concentration at which FITC signal on B lymphocytes (CD19 positive gate) reached saturation ([1]; human PBMC, FITC GAH IgG detection): approximately 1 μg/mL | blocking activity (inhibition of binding of FITC anti-CD37 conjugates) (CD37): highest level of blocking activity | CDC killing of DHL-4 B cells (DHL-4 B cells): little or no activity alone | FITC C1q binding (C1q): does not bind well | cell toxicity (cell viability relative to herceptin-treated cells) [2]: greater cell toxicity than rituximab | Annexin V Positive (BJAB cells; Bjab, 20 μg/mL SMIP, goat anti-human IgG crosslinking): 30.6 | effect on apoptosis of cell lines (BJAB cells; in the presence of crosslinking, BJAB, Ramos, Daudi, Table 2): more significant effect on apoptosis of cell lines than TRU-015 alone
